Experiments:
[1] = target: GDP-bound NRAS wild-type protein (Homo sapiens, UniProt P01111); test: Binding to NRAS by surface plasmon resonance (SPR), Single Cycle Kinetics; conditions: for NRAS/KRAS (ratio of KD value with respect to GDP-bound NRAS wild-type protein to KD value with respect to KRAS): SPR KD ratio NRAS/KRAS, class symbols; for NRAS/KRAS (ratio of KD value for NRAS to KD value for KRAS): SPR, GDP-bound NRAS wild-type protein vs GDP-bound KRAS wild-type protein
[2] = target: GDP-bound HRAS wild-type protein (Homo sapiens, UniProt P01112); test: Binding to HRAS by surface plasmon resonance (SPR), Single Cycle Kinetics; conditions: for HRAS/KRAS (ratio of KD value with respect to GDP-bound HRAS wild-type protein to KD value with respect to KRAS): SPR KD ratio HRAS/KRAS, class symbols; for HRAS/KRAS (ratio of KD value for HRAS to KD value for KRAS): SPR, GDP-bound HRAS wild-type protein vs GDP-bound KRAS wild-type protein
Chain of GDP-bound HRAS wild-type protein (P01112 whole entry): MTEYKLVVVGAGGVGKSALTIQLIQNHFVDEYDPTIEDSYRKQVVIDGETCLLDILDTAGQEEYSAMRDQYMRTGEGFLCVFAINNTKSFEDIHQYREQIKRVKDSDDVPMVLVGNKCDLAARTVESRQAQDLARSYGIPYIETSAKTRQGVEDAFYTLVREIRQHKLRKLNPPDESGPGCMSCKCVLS

Chain of GDP-bound NRAS wild-type protein (P01111 whole entry): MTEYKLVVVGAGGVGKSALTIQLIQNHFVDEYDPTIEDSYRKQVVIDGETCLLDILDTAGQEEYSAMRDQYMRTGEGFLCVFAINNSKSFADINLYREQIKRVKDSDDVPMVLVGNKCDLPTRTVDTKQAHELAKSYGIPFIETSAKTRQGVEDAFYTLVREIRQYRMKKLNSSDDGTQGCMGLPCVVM

| SMILES | NRAS/KRAS (ratio of KD value with respect to GDP-bound NRAS wild-type protein to KD value with respect to KRAS) [1] | HRAS/KRAS (ratio of KD value with respect to GDP-bound HRAS wild-type protein to KD value with respect to KRAS) [2] | NRAS/KRAS (ratio of KD value for NRAS to KD value for KRAS) [1] | HRAS/KRAS (ratio of KD value for HRAS to KD value for KRAS) [2] |
| --- | --- | --- | --- | --- |
| CCC(CC)[C@H]1C(=O)N(C)[C@H](C(=O)N(C)C)CC(=O)N(C)[C@@H](COC)C(=O)N[C@@H]([C@@H](C)CC)C(=O)N(C)CC(=O)N(C)[C@H]2C/C=C\CCN(C2=O)[C@@H](Cc2ccc(C)cc2)C(=O)N(C)CC(=O)N[C@@H](CCc2ccc(C(F)(F)F)c(OC)c2)C(=O)N2CCOC[C@H]2C(=O)NC2(CC(C)(C)C2)C(=O)N1C [PP2938] | AA (a compound having 20 or more is denoted as AA) | A (a compound having 10 or more and less than 20 is denoted as A) | – | – |
| CCC[C@H]1C(=O)N[C@@H]([C@@H](C)CC)C(=O)N(C)CC(=O)N(C)[C@H]2C/C=C\CCN(C2=O)[C@@H](Cc2ccc(C)cc2)C(=O)N(C)CC(=O)N[C@@H](CCc2cc(Cl)c3sccc3c2)C(=O)N2C[C@H](OCC)C[C@H]2C(=O)NC2(CC(C)(C)C2)C(=O)N(C)[C@@H](C2CCCC2)C(=O)N(C)[C@H](C(=O)N(C)C)CC(=O)N1C [PP2947] | B (a compound having 3 or more and less than 10 is denoted as B) | B (a compound having 3 or more and less than 10 is denoted as B) | – | – |
| CCC[C@H]1C(=O)N[C@@H]([C@@H](C)CC)C(=O)N(C)CC(=O)N(C)[C@H]2C/C=C\CCN(C2=O)[C@@H](Cc2ccc(C)cc2)C(=O)N(C)CC(=O)N[C@@H](CCc2cc(Cl)c3c(ccn3C)c2)C(=O)N2C[C@H](OCC)C[C@H]2C(=O)NC2(CC(C)(C)C2)C(=O)N(C)[C@@H](C2CCCC2)C(=O)N(C)[C@H](C(=O)N(C)C)CC(=O)N1C [PP2951] | A (a compound having 10 or more and less than 20 is denoted as A) | A (a compound having 10 or more and less than 20 is denoted as A) | – | – |
| CCC(CC)[C@H]1C(=O)N(C)[C@H](C(=O)N(C)C)CC(=O)N(C)[C@@H](COC)C(=O)N[C@@H]([C@@H](C)CC)C(=O)N(C)CC(=O)N(C)[C@H]2C/C=C\CCN(C2=O)[C@@H](Cc2ccc(C)cc2)C(=O)N(C)CC(=O)N[C@@H](CCc2cc(F)c(C(F)(F)F)c(F)c2)C(=O)N2CCCCC[C@H]2C(=O)NC2(CC(C)(C)C2)C(=O)N1C [PP2960] | A (a compound having 10 or more and less than 20 is denoted as A) | A (a compound having 10 or more and less than 20 is denoted as A) | – | – |
| CCC(CC)[C@H]1C(=O)N(C)[C@H](C(=O)N(C)C)CC(=O)N(C)[C@@H](COC)C(=O)N[C@@H]([C@@H](C)CC)C(=O)N(C)CC(=O)N(C)[C@H]2C/C=C\CCN(C2=O)[C@@H](Cc2ccc(C)cc2)C(=O)N(C)CC(=O)N[C@@H](CCc2ccc(C(F)(F)F)c(Cl)c2)C(=O)N2CCCCC[C@H]2C(=O)NC2(CC(C)(C)C2)C(=O)N1C [PP2966] | A (a compound having 10 or more and less than 20 is denoted as A) | A (a compound having 10 or more and less than 20 is denoted as A) | – | – |
| CCC(CC)[C@H]1C(=O)N(C)[C@H](C(=O)N(C)C)CC(=O)N(C)[C@@H](COC)C(=O)N[C@@H]([C@@H](C)CC)C(=O)N(C)CC(=O)N(C)[C@H]2C/C=C\CCN(C2=O)[C@@H](Cc2ccc(C)cc2)C(=O)N(C)CC(=O)N[C@@H](CCc2ccc(C(F)(F)F)c(Cl)c2)C(=O)N2CC3(CC3)C[C@H]2C(=O)NC2(CC(C)(C)C2)C(=O)N1C [PP2967] | AA (a compound having 20 or more is denoted as AA) | A (a compound having 10 or more and less than 20 is denoted as A) | – | – |
| CCC(CC)[C@H]1C(=O)N(C)[C@H](C(=O)N(C)C)CC(=O)N(C)[C@@H](COC)C(=O)N[C@@H]([C@@H](C)CC)C(=O)N(C)CC(=O)N(C)[C@H]2C/C=C\CCN(C2=O)[C@@H](Cc2ccc(C)cc2)C(=O)N(C)CC(=O)N[C@@H](CCc2ccc(C(F)(F)F)c(OC)c2)C(=O)N2CCCCC[C@H]2C(=O)NC2(CC(C)(C)C2)C(=O)N1C [PP2970] | A (a compound having 10 or more and less than 20 is denoted as A) | A (a compound having 10 or more and less than 20 is denoted as A) | – | – |
| CCC(CC)[C@H]1C(=O)N(C)[C@H](C(=O)N(C)C)CC(=O)N(C)[C@@H](COC)C(=O)N[C@@H]([C@@H](C)CC)C(=O)N(C)CC(=O)N(C)[C@H]2C/C=C\CCN(C2=O)[C@@H](Cc2ccc(C)cc2)C(=O)N(C)CC(=O)N[C@@H](CCc2ccc(Cl)c(Cl)c2)C(=O)N2CCCCC[C@H]2C(=O)NC2(CC(C)(C)C2)C(=O)N1C [PP2974] | – | – | A (a compound having 10 or more and less than 20 is denoted as A) | A (a compound having 10 or more and less than 20 is denoted as A) |
| C#CC[C@H]1C(=O)N[C@@H]([C@@H](C)CC)C(=O)N(C)CC(=O)N(C)[C@H]2C/C=C\CCN(C2=O)[C@@H](Cc2ccc(C)cc2)C(=O)N(C)CC(=O)N[C@@H](CCc2cc(F)c(C(F)(F)F)c(F)c2)C(=O)N2CC3(CC3)C[C@H]2C(=O)NC2(CC(C)(C)C2)C(=O)N(C)[C@@H](C2CCCC2)C(=O)N(C)[C@H](C(=O)N(C)C)CC(=O)N1C [PP2978] | – | – | A (a compound having 10 or more and less than 20 is denoted as A) | A (a compound having 10 or more and less than 20 is denoted as A) |
| CCC[C@H]1C(=O)N[C@@H]([C@@H](C)CC)C(=O)N(C)CC(=O)N(C)[C@H]2C/C=C\CCN(C2=O)[C@@H](Cc2ccc(C(F)(F)F)cc2)C(=O)N(C)CC(=O)N[C@@H](CCc2ccc(C(F)(F)F)c(Cl)c2)C(=O)N2CC3(CC3)C[C@H]2C(=O)NC2(CC(C)(C)C2)C(=O)N(C)[C@@H](CC(F)(F)F)C(=O)N(C)[C@H](C(=O)N(C)C)CC(=O)N1C [PP2985] | – | – | AA (a compound having 20 or more is denoted as AA) | A (a compound having 10 or more and less than 20 is denoted as A) |
| CCC[C@H]1C(=O)N[C@@H](C2CCCC2)C(=O)N(C)CC(=O)N(C)[C@H]2C/C=C\CCN(C2=O)[C@@H](Cc2ccc(C)cc2)C(=O)N(C)CC(=O)N[C@@H](CCc2cc(F)c(C(F)(F)F)c(F)c2)C(=O)N2C[C@H](OCC)C[C@H]2C(=O)NC2(CC(C)(C)C2)C(=O)N(C)[C@@H](C2CCCC2)C(=O)N(C)[C@H](C(=O)N(C)C)CC(=O)N1C [PP2988] | – | – | B (a compound having 3 or more and less than 10 is denoted as B) | B (a compound having 3 or more and less than 10 is denoted as B) |
| CCC[C@H]1C(=O)N[C@@H](C2CCCC2)C(=O)N(C)CC(=O)N(C)[C@H]2C/C=C\CCN(C2=O)[C@@H](Cc2ccc(C)cc2)C(=O)N(C)CC(=O)N[C@@H](CCc2ccc(C(F)(F)F)c(OC)c2)C(=O)N2CC3(CC3)C[C@H]2C(=O)NC2(CC(C)(C)C2)C(=O)N(C)[C@@H](C2CCCC2)C(=O)N(C)[C@H](C(=O)N(C)C)CC(=O)N1C [PP2994] | – | – | AA (a compound having 20 or more is denoted as AA) | A (a compound having 10 or more and less than 20 is denoted as A) |
| CCC[C@H]1C(=O)N[C@@H]([C@@H](C)CC)C(=O)N(C)CC(=O)N(C)[C@H]2C/C=C\CCN(C2=O)[C@@H](Cc2ccc(C)cc2)C(=O)N(C)CC(=O)N[C@@H](CCc2cc(F)c(C(F)(F)F)c(F)c2)C(=O)N2C[C@H](OCC)C[C@H]2C(=O)NC2(CC(C)(C)C2)C(=O)N(C)[C@@H](CC(C)C)C(=O)N(C)[C@H](C(=O)N(C)C)CC(=O)N1C [PP2995] | – | – | A (a compound having 10 or more and less than 20 is denoted as A) | A (a compound having 10 or more and less than 20 is denoted as A) |
| CCC[C@H]1C(=O)N[C@@H](C2CCCCC2)C(=O)N(C)CC(=O)N(C)[C@H]2C/C=C\CCN(C2=O)[C@@H](Cc2ccc(C)cc2)C(=O)N(C)CC(=O)N[C@@H](CCc2ccc(C(F)(F)F)c(Cl)c2)C(=O)N2C[C@H](OCC)C[C@H]2C(=O)NC2(CC(C)(C)C2)C(=O)N(C)[C@@H](C2CCCC2)C(=O)N(C)[C@H](C(=O)N(C)C)CC(=O)N1C [PP2998] | – | – | A (a compound having 10 or more and less than 20 is denoted as A) | AA (a compound having 20 or more is denoted as AA) |
| CCC[C@H]1C(=O)N[C@@H](C2CCOCC2)C(=O)N(C)CC(=O)N(C)[C@H]2C/C=C\CCN(C2=O)[C@@H](Cc2ccc(C)cc2)C(=O)N(C)CC(=O)N[C@@H](CCc2ccc(C(F)(F)F)c(Cl)c2)C(=O)N2C[C@H](OCC)C[C@H]2C(=O)NC2(CC(C)(C)C2)C(=O)N(C)[C@@H](C2CCCC2)C(=O)N(C)[C@H](C(=O)N(C)C)CC(=O)N1C [PP3002] | – | – | A (a compound having 10 or more and less than 20 is denoted as A) | A (a compound having 10 or more and less than 20 is denoted as A) |
| CCC[C@H]1C(=O)N[C@@H](C2CCCC2)C(=O)N(C)CC(=O)N(C)[C@H]2C/C=C\CCN(C2=O)[C@@H](Cc2ccc(C)cc2)C(=O)N(C)CC(=O)N[C@@H](CCc2ccc(C(F)(F)F)c(OC)c2)C(=O)N2C[C@H](OCC)C[C@H]2C(=O)NC2(CC(C)(C)C2)C(=O)N(C)[C@@H](CC(C)(C)C)C(=O)N(C)[C@H](C(=O)N(C)C)CC(=O)N1C [PP3005] | – | – | A (a compound having 10 or more and less than 20 is denoted as A) | B (a compound having 3 or more and less than 10 is denoted as B) |

From patent publication US20240158446A1, “CYCLIC COMPOUND HAVING SELECTIVE INHIBITORY ACTION ON KRAS OVER HRAS AND NRAS” (CHUGAI SEIYAKU KABUSHIKI KAISHA, priority 2021, published 2024)
